Measurements as given in ChEMBL document CHEMBL6177950, “Discovery of potent and selective CDK2 inhibitors with high safety and favorable bioavailability for the treatment of cancer” (Eur J Med Chem, 2025).

Tested on: OVCAR-3
Test: Induction of apoptosis in human OVCAR-3 cells assessed as early apoptotic cells at 2 uM incubated for 24 hrs by Annexin V-FITC/PI staining based flow cytometry analysis (reference value: 1.25%)
Type: functional
Settings: not given

SMILES | Activity
FC(F)Oc1cc(Nc2cnc3cnn(CC4CCOCC4)c3n2)n[nH]1 [CERTOCICLIB] | 4.47%

Tested on: OVCAR-3
Test: Induction of cell cycle arrest in human OVCAR-3 cells assessed as accumulation of cells at G2 phase at 2 uM incubated for 24 hrs by flow cytometry analysis (reference value: 21.77%)
Type: functional
Settings: not given

SMILES | Activity
FC(F)Oc1cc(Nc2cnc3cnn(CC4CCOCC4)c3n2)n[nH]1 [CERTOCICLIB] | 2.64%

Tested on: not listed separately
Test: Antiproliferative activity against Palbociclib-resistance human MCF7 cells assessed as cell growth inhibition
Type: functional, cell-based, Palbociclib-resistant MCF7 cell
Settings: not given

SMILES | IC50
CC(=O)c1c(C)c2cnc(Nc3ccc(N4CCNCC4)cn3)nc2n(C2CCCC2)c1=O [PALBOCICLIB] | 13.8 µM

Target: Cyclin-dependent kinase 2/cyclin E1 (Homo sapiens, UniProt P24941)
Test: Inhibition of CDK2/Cyclin E1 (unknown origin) pre-incubated for 10 mins followed by ATP/substrate addition and measured after 60 mins by ADP-Glo assay
Type: protein-complex assay
Settings: not given

IC50 | SMILES
13 nM | CCCCn1cc(-c2nc(NC3CCN(S(C)(=O)=O)CC3)ncc2F)cc(F)c1=O
63 nM | CC(=O)N1CCC(Nc2ncc(F)c(-c3ccc(=O)n(C(C)C)c3)n2)CC1
216 nM | CC(C)Oc1ncc(-c2nc(NC3CCN(S(=O)(=O)C(C)C)CC3)ncc2F)cc1F
6 nM | CCS(=O)(=O)N1CCC(Nc2ncc(F)c(-c3cc(F)c(=O)n(C(C)C)c3)n2)CC1
7 nM | CCC(C)n1cc(-c2nc(NC3CCN(S(=O)(=O)CC)CC3)ncc2F)cc(F)c1=O (stereo not drawn)
656 nM | CC(C)Oc1ncc(-c2nc(NC3CCN(S(C)(=O)=O)CC3)ncc2F)cc1C(=O)O
4 nM | CC(C)n1cc(-c2nc(NC3CCN(S(C)(=O)=O)CC3)ncc2F)cc(F)c1=O
15 nM | CC(C)=CCn1cc(-c2nc(NC3CCN(S(C)(=O)=O)CC3)ncc2F)cc(F)c1=O
124 nM | COCCS(=O)(=O)N1CCC(Nc2ncc(F)c(-c3cnc(OC(C)C)c(F)c3)n2)CC1
23 nM | CCn1cc(-c2nc(NC3CCN(S(C)(=O)=O)CC3)ncc2F)cc(F)c1=O
810 nM | CC(C)Oc1ncc(-c2ccnc(NC3CCN(S(C)(=O)=O)CC3)n2)cc1F
12 nM | CC(C)Cn1cc(-c2nc(NC3CCN(S(C)(=O)=O)CC3)ncc2F)cc(F)c1=O
130 nM | CCCS(=O)(=O)N1CCC(Nc2ncc(F)c(-c3cnc(OC(C)C)c(F)c3)n2)CC1
73 nM | CC(C)Oc1ncc(-c2nc(NC3CCN(S(C)(=O)=O)CC3)ncc2F)cc1F
222 nM | Cc1cc(-c2nc(NC3CCN(S(C)(=O)=O)CC3)ncc2F)cn(C(C)C)c1=O
7 nM | COCCS(=O)(=O)N1CCC(Nc2ncc(F)c(-c3cc(F)c(=O)n(C(C)C)c3)n2)CC1
297 nM | Cc1nc(OC(C)C)ccc1-c1nc(NC2CCN(S(C)(=O)=O)CC2)ncc1F

IC50 | SMILES
5 nM | CCC(C)n1cc(-c2nc(NC3CCN(S(=O)(=O)CCOC)CC3)ncc2F)cc(F)c1=O (stereo not drawn)
166 nM | Cc1cc(-c2nc(NC3CCN(S(C)(=O)=O)CC3)ncc2F)cnc1OC(C)C
341 nM | COc1cnc(NC2CCN(S(C)(=O)=O)CC2)nc1-c1cnc(OC(C)C)c(F)c1
5 nM | CCCS(=O)(=O)N1CCC(Nc2ncc(F)c(-c3cc(F)c(=O)n(C(C)C)c3)n2)CC1
10 nM | COCCS(=O)(=O)N1CCC(Nc2ncc(F)c(-c3ccc(=O)n(C(C)C)c3)n2)CC1
42 nM | CC(C)n1cc(-c2nc(NC3CCN(S(=O)(=O)C(F)(F)F)CC3)ncc2F)ccc1=O
70 nM | Cn1cc(-c2nc(NC3CCN(S(C)(=O)=O)CC3)ncc2F)cc(F)c1=O
5 nM | CC(C)n1cc(-c2nc(NC3CCN(S(=O)(=O)C4CC4)CC3)ncc2F)cc(F)c1=O
> 1000 nM | CC(C)n1cc(-c2nc(NC3CCNCC3)ncc2F)ccc1=O
113 nM | CCS(=O)(=O)N1CCC(Nc2ncc(F)c(-c3cnc(OC(C)C)c(F)c3)n2)CC1
8 nM | CC(C)n1cc(-c2nc(NC3CCN(S(=O)(=O)C(C)C)CC3)ncc2F)cc(F)c1=O
139 nM | CC(C)n1cc(-c2nc(NC3CCN(C(=O)OC(C)(C)C)CC3)ncc2F)ccc1=O
93 nM | CC(C)Oc1ccc(-c2nc(NC3CCN(S(C)(=O)=O)CC3)ncc2F)cn1
7 nM | CC(C)n1cc(-c2nc(NC3CCN(S(C)(=O)=O)CC3)ncc2F)ccc1=O
3 nM | CCC(C)n1cc(-c2nc(NC3CCN(S(C)(=O)=O)CC3)ncc2F)cc(F)c1=O (stereo not drawn)
16 nM | CC(C)n1cc(-c2nc(NC3CCN(S(=O)(=O)C(C)C)CC3)ncc2F)ccc1=O
7 nM | CCCS(=O)(=O)N1CCC(Nc2ncc(F)c(-c3ccc(=O)n(C(C)C)c3)n2)CC1

Tested on: MCF7
Test: Antiproliferative activity against wild type human MCF7 cells assessed as cell growth inhibition
Type: functional, cell-based
Settings: not given

IC50 | SMILES
80 nM | CC(=O)c1c(C)c2cnc(Nc3ccc(N4CCNCC4)cn3)nc2n(C2CCCC2)c1=O [PALBOCICLIB]

Tested on: not listed separately
Test: Antiproliferative activity against CCNE1-amplified human OVCAR-3 cells assessed as cell growth inhibition incubated for 3 days by CCK8 assay
Type: functional, cell-based
Settings: OVCAR-3, 72 h

SMILES | IC50
FC(F)Oc1cc(Nc2cnc3cnn(CC4CCOCC4)c3n2)n[nH]1 [CERTOCICLIB] | 2310 nM

Tested on: OVCAR-3
Test: Induction of apoptosis in human OVCAR-3 cells assessed as necrotic cells at 2 uM incubated for 24 hrs by Annexin V-FITC/PI staining based flow cytometry analysis (reference value: 0.87%)
Type: functional
Settings: not given

SMILES | Activity
FC(F)Oc1cc(Nc2cnc3cnn(CC4CCOCC4)c3n2)n[nH]1 [CERTOCICLIB] | 3.77%

Tested on: OVCAR-3
Test: Induction of apoptosis in human OVCAR-3 cells assessed as late apoptotic cells at 2 uM incubated for 24 hrs by Annexin V-FITC/PI staining based flow cytometry analysis (reference value: 2.67%)
Type: functional
Settings: not given

SMILES | Activity
FC(F)Oc1cc(Nc2cnc3cnn(CC4CCOCC4)c3n2)n[nH]1 [CERTOCICLIB] | 12.5%

Tested on: OVCAR-3
Test: Induction of cell cycle arrest in human OVCAR-3 cells assessed as accumulation of cells at G1 phase at 2 uM incubated for 24 hrs by flow cytometry analysis (reference value: 67.73%)
Type: functional
Settings: not given

SMILES | Activity
FC(F)Oc1cc(Nc2cnc3cnn(CC4CCOCC4)c3n2)n[nH]1 [CERTOCICLIB] | 95.66%

Tested on: OVCAR-3
Test: Induction of apoptosis in human OVCAR-3 cells assessed as viable cells at 2 uM incubated for 24 hrs by Annexin V-FITC/PI staining based flow cytometry analysis (reference value: 95.2%)
Type: functional
Settings: read-out: Activity

SMILES | viability at 2 µM
FC(F)Oc1cc(Nc2cnc3cnn(CC4CCOCC4)c3n2)n[nH]1 [CERTOCICLIB] | 79.3%
